The text below walks through data of PubChem BioAssay (NCI).

Some test systems named below: COLO 205 colon; HCT-15 colon; A549 NSCLC; K-562 leukemia; U251 CNS; MDA-MB-435; IGROV1 ovarian; PC-3 prostate; HOP-62 NSCLC; HOP-92 NSCLC.
Common to all, as to experiment: NCI-60 cell line screen, 48 h

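These data come from cells grown in 96-well plates and exposed to compound for 48 hours at five concentrations. The concentration for full growth arrest is given as TGI.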

On to `CC1CC(=O)Nc2ccccc2N1C(=O)C1CC1` (stereo unspecified), for which the TGI in the experiment with COLO 205 colon, with HCT-15 colon, in the experiment on A549 NSCLC, in the experiment on K-562 leukemia, in the experiment on U251 CNS and in the experiment with MDA-MB-435 was over 100 µM throughout. Further, the TGI in the experiment with IGROV1 ovarian, in the experiment on PC-3 prostate, with HOP-62 NSCLC and in the experiment on HOP-92 NSCLC was over 100 µM throughout.
On to `CCOc1cc2c(cc1O)C(=O)C[C@@H]1[C@@H]2CC[C@]2(C)[C@@H](O)CC[C@@H]12`, for which the TGI in the experiment with COLO 205 colon is 47.4 µM; with HCT-15 colon it was 29.3 µM; in the experiment on A549 NSCLC it was over 100 µM; in the experiment with K-562 leukemia, 2.27 µM; with U251 CNS it was over 51.9 µM; with MDA-MB-435 it was 0.222 µM. Also, the TGI in the experiment with IGROV1 ovarian is over 30.3 µM; with PC-3 prostate, over 82.5 µM; in the experiment on HOP-62 NSCLC it was over 100 µM; in the experiment on HOP-92 NSCLC it was over 100 µM.
Regarding `CN(Cc1cnc2nc(N)nc(N)c2n1)c1ccc(C(=O)NCCCC(=O)O)cc1`, the TGI in the experiment with COLO 205 colon, in the experiment with HCT-15 colon, in the experiment on A549 NSCLC, in the experiment with K-562 leukemia, with U251 CNS and with MDA-MB-435 was over 100 µM in each case. Moreover, the TGI in the experiment with IGROV1 ovarian, with PC-3 prostate, in the experiment on HOP-62 NSCLC and in the experiment with HOP-92 NSCLC was over 100 µM in each case.
Consider `CON[N+]([O-])=NC(C)C`, for which the TGI in the experiment on COLO 205 colon, with HCT-15 colon, with A549 NSCLC, in the experiment with K-562 leukemia, in the experiment on U251 CNS and with MDA-MB-435 was over 100 µM throughout. In addition, the TGI in the experiment on IGROV1 ovarian, in the experiment with PC-3 prostate, in the experiment with HOP-62 NSCLC and with HOP-92 NSCLC was over 100 µM throughout.
On to `Cc1cccc(N=N/C(=N\NC(=O)c2cc(Cl)ccc2O)c2ccc(N(CCC#N)CCC#N)cc2C)c1`, for which the TGI with COLO 205 colon was 29.3 µM; with HCT-15 colon, 88.2 µM; in the experiment on A549 NSCLC, over 100 µM; in the experiment on K-562 leukemia, 67.3 µM; in the experiment with U251 CNS, over 100 µM; in the experiment on MDA-MB-435 it was over 100 µM. Moreover, the TGI in the experiment on IGROV1 ovarian was 43.6 µM; in the experiment with PC-3 prostate it was over 100 µM; with HOP-62 NSCLC, over 100 µM; in the experiment on HOP-92 NSCLC, 60.7 µM.
As to `c1ccc2c(c1)-c1ccccc1C2NC1=NCCO1`, the TGI with COLO 205 colon is 41 µM; in the experiment with HCT-15 colon it was 21.3 µM; with A549 NSCLC it was over 100 µM; with K-562 leukemia, over 100 µM; in the experiment on U251 CNS, over 100 µM; in the experiment with MDA-MB-435, 53 µM. Moreover, the TGI amounted to 40.3 µM with IGROV1 ovarian, 95.3 µM with PC-3 prostate, 46.5 µM with HOP-62 NSCLC and 36.3 µM with HOP-92 NSCLC.
Turning to `OC(Cc1cc(CC(O)(C(F)(F)F)C(F)(F)F)nc(CC(O)(C(F)(F)F)C(F)(F)F)c1)(C(F)(F)F)C(F)(F)F`, the TGI in the experiment on COLO 205 colon was 2.14 µM; in the experiment with HCT-15 colon, 3.95 µM; in the experiment on A549 NSCLC, 9.69 µM; in the experiment on K-562 leukemia, over 10 µM; in the experiment with U251 CNS it was 5.32 µM; in the experiment with MDA-MB-435, 7.94 µM. In addition, the TGI in the experiment with IGROV1 ovarian turned out to be 5.58 µM; in the experiment on PC-3 prostate it was 0.776 µM; with HOP-62 NSCLC, 3.63 µM; in the experiment with HOP-92 NSCLC, 3.45 µM.
In the case of `O=C(CC(=O)N1N=C(N(c2ccccc2)c2ccccc2)CC1c1ccccc1)Nc1cccc(Cl)c1` (stereo unspecified), the TGI with COLO 205 colon, in the experiment on HCT-15 colon, in the experiment with A549 NSCLC, with K-562 leukemia, with U251 CNS and in the experiment on MDA-MB-435 was over 100 µM each time. Also, the TGI in the experiment with IGROV1 ovarian, in the experiment with PC-3 prostate, in the experiment on HOP-62 NSCLC and in the experiment with HOP-92 NSCLC was over 100 µM each time.
Turning to `CN(C)CC(C)(C)CN1c2ccccc2Sc2ccccc21`, the TGI in the experiment on COLO 205 colon was 24.9 µM; in the experiment with HCT-15 colon it was over 100 µM; in the experiment with A549 NSCLC, 29.3 µM; in the experiment on K-562 leukemia, 22.8 µM; in the experiment with U251 CNS, 26.4 µM; in the experiment with MDA-MB-435 it was 26.5 µM. The TGI in the experiment with IGROV1 ovarian was 28.1 µM; with PC-3 prostate, 25.5 µM; in the experiment with HOP-62 NSCLC it was 25.5 µM; in the experiment on HOP-92 NSCLC it was 24.1 µM.
Take `C=C(C)[C@H]1CC(=O)[C@@]2(C)C[C@H]3O[C@]3(C)CC/C=C(\C)CC[C@H]12`: the TGI in the experiment with COLO 205 colon was 44.4 µM; in the experiment with HCT-15 colon, over 100 µM; with A549 NSCLC, over 100 µM; in the experiment on K-562 leukemia, 47.2 µM; in the experiment with U251 CNS, over 100 µM; with MDA-MB-435, over 100 µM. In addition, the TGI was over 100 µM in the experiment with IGROV1 ovarian, 86.2 µM in the experiment with PC-3 prostate, over 100 µM in the experiment with HOP-62 NSCLC and over 100 µM in the experiment on HOP-92 NSCLC.
As for `Cn1c(=O)c2c(=O)cc(N)[nH]c2n(C)c1=O`, the TGI with COLO 205 colon, in the experiment on A549 NSCLC, with K-562 leukemia, in the experiment with U251 CNS, with MDA-MB-435 and with IGROV1 ovarian was over 100 µM throughout. Moreover, the TGI with PC-3 prostate, in the experiment with HOP-62 NSCLC and in the experiment with HOP-92 NSCLC was over 100 µM throughout.
With `COC(=O)c1c2c(cc3c1CC1(C3)Cc3cc4c(c(C(=O)OC)c3C1)CCC4)CCC2`, the TGI with COLO 205 colon, in the experiment with A549 NSCLC, in the experiment with K-562 leukemia, in the experiment on U251 CNS, in the experiment with MDA-MB-435 and with IGROV1 ovarian was over 100 µM each time. For the same compound, the TGI in the experiment on PC-3 prostate, with HOP-62 NSCLC and with HOP-92 NSCLC was over 100 µM throughout.
For `C#CCn1c(=O)ccn(/C(=C/C(=O)OCC)C(=O)OCC)c1=O`, the TGI with HCT-15 colon was 7.8 µM; with A549 NSCLC it was 34.9 µM; with K-562 leukemia, over 100 µM; with U251 CNS, 35.4 µM; with MDA-MB-435 it was 28.1 µM; in the experiment on IGROV1 ovarian it was 13.8 µM. Moreover, the TGI in the experiment with PC-3 prostate was 28.1 µM; in the experiment with HOP-62 NSCLC, 31.8 µM; in the experiment on HOP-92 NSCLC it was 6.32 µM.
For the compound `CN1CCc2c(sc3ncn(Nc4ccc(F)cc4)c(=N)c23)C1`, the TGI in the experiment with HCT-15 colon, in the experiment on A549 NSCLC, in the experiment on K-562 leukemia, with U251 CNS, in the experiment on MDA-MB-435 and in the experiment on IGROV1 ovarian was over 100 µM throughout. The TGI with PC-3 prostate, in the experiment on HOP-62 NSCLC and with HOP-92 NSCLC was over 100 µM in each case.
